In US6492427B2, “Methods for treating multiple sclerosis” (priority 1998, dated 2002):
Entries after “also recorded” stand apart in the source; their conditions may differ. Like-named read-outs stand apart in the source and are kept apart here.

Legend:
oligodendroglial cells = test: In situ DNA end labeling (ApopTag), counts of apoptotic nuclei; type: cell-based, rat; conditions: 6, 12, 15, 18, 24 h, both experimental series
Description: The ApopTag™ method utilizes an ApopTag™ in situ apoptosis detection kit (Oncor, Md., USA), which detects nuclei with, cut 3′-OH ends of DNA. Oligodendrocytes at 16 DIV were treated with BM, BM-D9, IM and IM-D9 for 6, 12, 15, 18 and 24 h. Cells were fixed in 2% paraformaldehyde, followed by three washes in 0.1M PBS and permeabilization with 0.05% Tween-20 in PBS for 10 min at room temperature. Endogenous peroxidase was quenched with 1% H2O2 in PBS for 5 min at room temperature. Coverslips were then covered with 1 X equilibration buffer for 30 min at room temperature and then incubated with terminal deoxynucleotidyl transferase (TdT)/reaction buffer (76 μl of reaction buffer+32 μl of TdT enzyme) for 1 h at 37° C. A stop wash buffer incubation for 30 min at 37° C. was used to terminate the 3′-OH DNA extension reaction. After a PBS wash, the coverslips were incubated with antidigoxigenin peroxidase antibody. After three washes with 0.1M PBS, chromogenic detection was carried out using DAB (1.5 mg/ml) mixed with hydrogen peroxide (H2O2; 0.02% v/v) yielding a brown reaction product. Coverslips were dehydrated in ascending grade alcohol series, cleared with xylene and mounted on slides using a drop of permount. ApopTag™ positive nuclei were randomly counted in triplicate (described in section 2.5), for each of the time points, for experimental series-I and II.

[1] = pH about 3-5 vs pH about 7; cited from earlier work
O-2As = test: Methylene blue counts of individual cell types: O-2As; type: cell-based, rat; conditions: BM-D9, 24 h
Description: (§1) Methylene blue (3,7-bis (dimethylamino)-phenothiazin-5-ium chloride), a ribonucleic acid (RNA) binding agent commonly used as an alternative nucleic acid stain, can also be used as a biological staining agent to stain cells in order to observe their morphological features. At 24 h, cells were fixed in 2% paraformaldehyde for 15 min at room temperature. Briefly, cells were washed twice with PBS and 100 μl of 1% methylene blue (Mallinckrodt Chemical Co., MO, USA) solution containing 1% AgNO3 was added for 10 min to the wells containing coverslips. Subsequently, the coverslips were washed with two changes of distilled water and absolute ethanol, cleared with xylene and mounted on slides with permount.
(§2) Cell counts were performed for 25 randomly chosen 100 power fields on each coverslip. Two randomly generated coordinates drawn from a uniform distribution of random numbers specified the center of each field. The random numbers were generated on a computer by using Microcal Origin 4.0 program. […] Three coverslips was counted for each treatment condition. In subsequent experiments, different cell types (for example, O-2A progenitors, PROLs, OLs and astrocytes) were morphologically identified on each field and were counted separately for experimental series-I and II. […]

PROLs = test: Methylene blue counts of individual cell types: PROLs; type: cell-based, rat; conditions: BM-D9, 24 h
Description: as §1, §2

[2] = test system: mitochondrial membrane potential (ΔψM) of oligodendroglial cells; test: CMTMR estimation of mitochondrial membrane potential by confocal microscopy; type: cell-based, rat; conditions: BM + 10^−9 M, 18 h
Description: The ΔψM was assessed by the addition of a lipophilic, potentiometric dye, chloromethyl-tetramethylrhodamine methyl ester (CMTMR, Mitotracker Orange™ Molecular Probes, Eugene, Oreg.). The CMTMR dye reacts with the thiol groups on proteins and peptides to form aldehyde fixable conjugates. Entry of the negatively charged mitochondrial matrix compartment is proportional to the difference in the membrane potential. Therefore, the CMTMR fluorescence labels the mitochondrial membrane potential generated due to the negativity difference between the mitochondrial matrix and the outside of the mitochondria. Upon cell fixation, CMTMR remains in the mitochondria and is not washed out unlike other mitochondrial potentiometric dyes like rhodamine123.
Oligodendrocytes at 16 DIV were placed in trophically deprived BM for 18 h or treated with BM-D9 or BM-Ds9. […] The cells were incubated in CMTMR at 37° C. for 15 min. The cells were then fixed with 4% cold paraformaldehyde on ice for 30 min and washed twice with 0.1M PBS. Consequently, the coverslips were mounted on glass slides with Aquamount (Gurr, England).
Individual mitochondria labeled with CMTMR were resolved by confocal microscopy. A Leica true confocal scanning (TCS) 4D microscope coupled to an argon-krypton laser (Omnichrome, USA) was used for cell imaging. A pinhole size of 20 with an excitation filter wavelength of 568 nm and an emission filter wavelength of 590 nm was used to image the CMTMR labeled mitochondria. Each field of the coverslip was imaged using an oil-immersion, 100 X, 1.3 N.A. objective at 512 by 512 by 8 bits per pixel resolution, background offset of −1 and line averaged 32 times in bi-directional line scan mode. Care was taken not to exceed the dynamic range of the gray value display. The confocal images obtained were saved on an optical drive in a tagged image file format (TIFF).
Fluorescence intensity of individual mitochondria was measured using the Metamorph™ program. Metamorph™ compiles measurements of objects in a 8-bit image ranging from gray values 0 (background) and 255. In order to obtain fluorescence intensity measures, a rectangular region tool of 2×2 pixels was used to measure two randomly selected areas within each mitochondrion. A total of ten mitochondria obtained equally from all the regions of each cell were measured within each image. About 20 images were analyzed for each treatment condition thereby giving a sum of about 400 mitochondrial fluorescence intensity measures. The raw values were then further graphed and analyzed with the Microcal Origin 4.1 program. Frequency count was performed on the data, which classified the data in ordered bins. A frequency distribution was obtained with lower bin value set at 0 and higher bin value set at 260.

CA1 hippocampal neurons = conditions: cited from earlier work
[3] = test system: CA1, CA3 and CA4 hippocampal neurons; conditions: 0.25 mg/kg daily, multiple time points up to 14 days (Paterson et al., 1997); cited from earlier work

C#CCN(C)[C@H](C)Cc1ccccc1 [(−)-deprenyl, R-(−)-N,α-Dimethyl-N-2-propynyl phenethylamine]
number of ApopTag positive nuclei (oligodendroglial cells; 10^−9 M added to IM): did not significantly change the number of ApopTag™ positive nuclei | number of ApopTag positive nuclei (oligodendroglial cells; 10^−9 M added to base media (BM)): significantly decreased the numbers of ApopTag™ nuclei in both experimental series | number of ApopTag positive nuclei (oligodendroglial cells; 10^−9 M added to base media (BM), listed as (−)-Deprenyl): reduced the incidence of apoptotic nuclei at all the time points | stability depending on pH of the medium [1]: more stable at a pH in the range of about 3-5 than at a pH of about 7 | O-2A cell numbers compared to those in BM (O-2As; experimental series II): 176% | O-2A cell numbers compared to those in BM (O-2As; experimental series-I): 244% | PROL cell numbers compared to those in BM (PROLs; experimental series II): 275% | PROL cell numbers compared to those in BM (PROLs; experimental series-I): 739.2% | mitochondrial CMTMR fluorescence distributions (ΔψM) in ASTs, PROLs and OLs [2]: not significantly different to those found for IM; also recorded: prevented the decrease in ΔψM | CA1 hippocampal neuronal survival (CA1 hippocampal neurons; 0.25 mg/kg, days 3 or 7 (Lahtinen et al., 1997)): significant increase in survival at both time points | CA1 hippocampal neuronal survival (CA1 hippocampal neurons; 10 mg/kg daily from 1-2 hours after 5 minutes occlusion, day 4 (Ballabriga et al., 1997)): no increase in survival | CA1, CA3 and CA4 hippocampal neuronal survival [3]: markedly significant increases in neuronal survival
